± gives the expanded uncertainty stated by the source.
Settings: 101.33 kPa, Liquid; for speed of sound: Sing-around technique in a fixed-path interferometer; for mass density: Vibrating tube method

| Compound | speed of sound (298.15 K) | mass density (298.15 K) | speed of sound (303.15 K) | mass density (303.15 K) | speed of sound (308.15 K) | mass density (308.15 K) | speed of sound (313.15 K) | mass density (313.15 K) | speed of sound (318.15 K) | mass density (318.15 K) | speed of sound (323.15 K) | mass density (323.15 K) |
| --- | --- | --- | --- | --- | --- | --- | --- | --- | --- | --- | --- | --- |
| C1CCCCC1 [cyclohexane] | 1254 ± 1 m/s | 773.86 ± 0.14 kg/m3 | 1229 ± 1 m/s | 769.12 ± 0.14 kg/m3 | 1205 ± 1 m/s | 764.35 ± 0.14 kg/m3 | 1181 ± 1 m/s | 759.56 ± 0.14 kg/m3 | 1157 ± 1 m/s | 754.74 ± 0.14 kg/m3 | 1134 ± 1 m/s | 749.88 ± 0.15 kg/m3 |
| CCCCCCC [heptane] | 1131 ± 1 m/s | 679.91 ± 0.18 kg/m3 | 1109 ± 1 m/s | 675.63 ± 0.19 kg/m3 | 1088 ± 1 m/s | 671.33 ± 0.19 kg/m3 | 1066 ± 1 m/s | 667.01 ± 0.19 kg/m3 | 1045 ± 1 m/s | 662.65 ± 0.19 kg/m3 | 1024 ± 1 m/s | 658.26 ± 0.19 kg/m3 |
| CCCCCC [hexane] | 1077 ± 2 m/s | 655.21 ± 0.26 kg/m3 | 1054 ± 2 m/s | 650.64 ± 0.26 kg/m3 | 1032 ± 2 m/s | 646.03 ± 0.26 kg/m3 | 1010 ± 2 m/s | 641.37 ± 0.26 kg/m3 | 988 ± 2 m/s | 636.67 ± 0.26 kg/m3 | 965 ± 2 m/s | 631.92 ± 0.26 kg/m3 |

— the NIST ThermoML archive (doi:10.1016/j.jct.2012.09.015)
